Experiments:
[1] = Rat abdominal aortic constriction (banding) pressure overload model of HF; type: in vivo, male Wistar rats; settings: rats with aortic banding; ALA from flaxseed oil
Excerpt: A dose-response study was completed with EPA+DHA from fish oil using the rat abdominal aortic constriction pressure overload model of HF. In this model a permanent band is tied around the supra-renal abdominal aorta of male Wistar rats (˜200 g) by placing a blunt needle (20G) along the aorta and tying a 3-0 silk suture around both the aorta and the needle. The needle is removed, leaving the diameter of the aortic lumen determined by the diameter of the needle. The increase in aortic pressure results in progressive LV hypertrophy, mitochondrial dysfunction and decreased activity of mitochondrial enzymes, and LV dilation and contractile dysfunction and thus HF^2, 207-213.
Rats were subjected to abdominal aortic banding and assigned them to 12 wks of treatment with either a standard chow or chow supplemented with EPA+DHA from fish oil at either 0.7, 2.3 or 7% of the total energy intake, with an EPA/DHA ration at a 30/70 mix, respectively. These doses correspond to estimated human doses of 1.6, 5.1 and 15.6 g/day (calculated assuming an energy intake of 2000 kcals/day in humans, and 9 kcals/g of EPA+DHA), thus we spanned both sides of the FDA approved human dose of 3.4 g/day. […] There were no differences in body mass or heart rate among groups. LV mass was 37% greater in the banded rats compared to sham on the standard diet. […]

[2] = mammalian cells; cited from earlier work
[3] = similar patient population to GISSI-HF; cited from earlier work

Row | Structure (SMILES) | cardiomyocyte apoptosis with supplementation [1] | conversion of ALA to EPA [2] [%] | beneficial effect in HF patients [3]
1 | CC/C=C\C/C=C\C/C=C\CCCCCCCC(=O)O [ALA, α-linolenic acid] | less apoptosis | ~10 | 
2 | CC(C)c1nc(N(C)S(C)(=O)=O)nc(-c2ccc(F)cc2)c1/C=C/[C@@H](O)C[C@@H](O)CC(=O)O [rosuvastatin] |  |  | no beneficial effect
